Test results published in publication PMC12635268, “Novel antimicrobial peptides and peptide-microbiome crosstalk in Appalachian salamander skin” (NPJ Biofilms and Microbiomes, 2025).
≈ marks a conversion by molar mass, not a printed value. Read-outs that look alike come from different tables or passages of the source.

Assays:
Test in all cases: microbe, parasite or virus in culture
E. cloacae ATCC 13047 = details: for Bacterial MIC: E. cloacae 13047; for MIC: Enterobacter cloacae
Method in brief: (§1)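 Broth microdilution in cation-adjusted Mueller-Hinton broth, final inoculum 1 × 10⁵ CFU/mL, peptides 0.25 to 128 μg/mL in 0.02% TFA + 0.04% BSA. Duplicates incubated 20 h at 37 °C without agitation. MIC read visually per CLSI with image-analysis support.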

E. cloacae ATCC 35549 = details: for Bacterial MIC: E. cloacae 35549; for MIC: Enterobacter cloacae
Method in brief: as §1

E. coli ATCC 43888 = details: for Bacterial MIC: E. coli 43888; for MIC: Escherichia coli
Method in brief: as §1

C[C@H]1COc2c(N3CCN(C)CC3)c(F)cc3c(=O)c(C(=O)O)cn1c23 [Levofloxacin, reference compound] was tested. Which “Bacterial MIC” value (E. cloacae ATCC 13047; Historical run 15NOV23) did it give?
Its value is “<= 0.250 µg/mL”.

And the “Bacterial MIC” value (E. cloacae ATCC 13047; Historical run 19APRIL23)?
Its value is “<= 0.250 µg/mL”.

What about the “Bacterial MIC” value (E. cloacae ATCC 13047; Historical run 22NOV23) of the same molecule?
Its value is “<= 0.250 µg/mL”.

And the “Bacterial MIC” value (E. cloacae ATCC 13047; Week 2 (12/14/2023))?
Its value is “<= 0.250 µg/mL”.

What about the MIC (E. cloacae ATCC 13047; ATCC13047, 20 h) of the same molecule?
The MIC was 0.25 µg/mL (≈ 0.692 µM).

What about the MIC (E. cloacae ATCC 13047; ATCC13047, read-out: Bacterial MIC) of the same molecule?
The MIC was ≤ 0.25 µg/mL.

What about the “Bacterial MIC” value (E. cloacae ATCC 35549; Historical run 15NOV23) of the same molecule?
Its value is “<= 0.250 µg/mL”.

What about the “Bacterial MIC” value (E. cloacae ATCC 35549; Historical run 19APRIL23) of the same molecule?
The value was “<= 0.250 µg/mL”.

And the “Bacterial MIC” value (E. cloacae ATCC 35549; Historical run 22NOV23)?
The value was “<= 0.250 µg/mL”.

And the “Bacterial MIC” value (E. cloacae ATCC 35549; Week 2 (12/14/2023))?
Its value is “<= 0.250 µg/mL”.

What about the MIC (E. cloacae ATCC 35549; ATCC35549, 20 h) of the same molecule?
The MIC was 0.25 µg/mL (≈ 0.692 µM).

And the MIC (E. cloacae ATCC 35549; ATCC35549, read-out: Bacterial MIC)?
Its MIC is ≤ 0.25 µg/mL.

And the “Bacterial MIC” value (E. coli ATCC 43888; Historical run 15NOV23)?
The value was “<= 0.250 µg/mL”.

What about the “Bacterial MIC” value (E. coli ATCC 43888; Historical run 19APRIL23) of the same molecule?
Its value is “<= 0.250 µg/mL”.

What about the “Bacterial MIC” value (E. coli ATCC 43888; Historical run 22NOV23) of the same molecule?
The value was “<= 0.250 µg/mL”.

And the “Bacterial MIC” value (E. coli ATCC 43888; Week 2 (12/14/2023))?
The value was “<= 0.250 µg/mL”.

What about the MIC (E. coli ATCC 43888; ATCC43888, 20 h) of the same molecule?
The MIC was 0.25 µg/mL (≈ 0.692 µM).

And the MIC (E. coli ATCC 43888; ATCC43888, read-out: Bacterial MIC)?
Its MIC is ≤ 0.25 µg/mL.
